Laboratory results from paper PMC12633397 (bioRxiv, 2025).

Target: T1, esVHPO (Enhygromyxa salina, UniProt A0A0C2CTX7)
T1 sequence (A0A0C2CTX7 1-528): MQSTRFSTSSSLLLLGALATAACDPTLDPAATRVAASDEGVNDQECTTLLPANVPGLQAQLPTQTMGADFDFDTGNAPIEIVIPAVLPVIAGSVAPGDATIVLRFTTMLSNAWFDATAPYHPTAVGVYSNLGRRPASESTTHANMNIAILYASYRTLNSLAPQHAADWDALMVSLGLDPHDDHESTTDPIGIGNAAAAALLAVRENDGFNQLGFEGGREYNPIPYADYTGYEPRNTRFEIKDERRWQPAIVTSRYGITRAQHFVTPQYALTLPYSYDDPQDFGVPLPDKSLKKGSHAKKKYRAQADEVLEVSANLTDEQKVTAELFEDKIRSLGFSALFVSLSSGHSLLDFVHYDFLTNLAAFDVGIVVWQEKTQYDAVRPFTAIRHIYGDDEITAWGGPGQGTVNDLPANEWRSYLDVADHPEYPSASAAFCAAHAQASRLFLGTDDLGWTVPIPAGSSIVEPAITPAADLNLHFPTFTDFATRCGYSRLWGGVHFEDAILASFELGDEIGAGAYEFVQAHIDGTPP
Test: UPLC-MS of Br-MHQ formation, steady-state kinetics
Type: biochemical
Settings: 1 mM H2O2, 20 mM KBr, 100 μM Na3VO4, 20 mM HEPES-KOH, 10% glycerol, 28 °C; Hill fit, positive cooperativity; labelled compound (deuterated)

Question: `Cc1cc(=O)c2ccccc2[nH]1` [C3-deuterated MHQ] was tested. Which K0.5 did it give?
Answer: The steady state kinetics for C3-Deuterated-MHQ (D-MHQ) was performed precisely as for undeuterated MHQ
